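Compound exposure: 48 hours, 5 concentrations, 96-well plates. At the GI50, growth is halved.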 Calls of active or inactive are those of the source. No stated cut-off is given here; in the data, active = GI50 up to about 1.1 µM and inactive = higher.
Legend:
Experiment in all cases: inhibition of tumour cell growth, NCI panel, 48 h
DMS-273 = test system: DMS-273
KM-20L2 = test system: KM-20L2
NCI-H23 = test system: NCI-H23
NCI-H522 = test system: NCI-H522
Malme-3M = test system: Malme-3M
SF-268 = test system: SF-268
SR = test system: SR
HT-29 = test system: HT-29
MOLT-4 = test system: MOLT-4
SF-295 = test system: SF-295
SK-MEL-28 = test system: SK-MEL-28
SW-620 = test system: SW-620
M14 = test system: M14
SK-MEL-5 = test system: SK-MEL-5
A549 = test system: A549
RXF 631 = test system: RXF 631
SF-539 = test system: SF-539
RXF 393 = test system: RXF 393
HOP-62 = test system: HOP-62
SNB-19 = test system: SNB-19
IGROV-1 = test system: IGROV-1
TK-10 = test system: TK-10
SK-OV-3 = test system: SK-OV-3
HCT-116 = test system: HCT-116
CAKI-1 = test system: CAKI-1
HOP-18 = test system: HOP-18
OVCAR-4 = test system: OVCAR-4
M19-MEL = test system: M19-MEL
ACHN = test system: ACHN
SNB-78 = test system: SNB-78
RPMI-8226 = test system: RPMI-8226
LOX IMVI = test system: LOX IMVI
UO-31 = test system: UO-31
K562 = test system: K562
CCRF-CEM = test system: CCRF-CEM
SK-MEL-2 = test system: SK-MEL-2
HL-60 = test system: HL-60
HCC 2998 = test system: HCC 2998
UACC-62 = test system: UACC-62
OVCAR-5 = test system: OVCAR-5
NCI-H460 = test system: NCI-H460
U-251 = test system: U-251
UACC-257 = test system: UACC-257
SN12C = test system: SN12C
EKVX = test system: EKVX
A498 = test system: A498
786-0 = test system: 786-0
KM12 = test system: KM12
HCT-15 = test system: HCT-15
SNB-75 = test system: SNB-75
OVCAR-8 = test system: OVCAR-8
XF498 = test system: XF498
DLD-1 = test system: DLD-1
LXFL 529 = test system: LXFL 529
OVCAR-3 = test system: OVCAR-3
COLO 205 = test system: COLO 205
NCI-H226 = test system: NCI-H226

Clc1cc(Cl)c2n[se]nc2c1
GI50 (DMS-273): > 100 µM (inactive)
GI50 (KM-20L2): > 100 µM (inactive)
GI50 (NCI-H23): > 100 µM (inactive)
GI50 (NCI-H522): > 100 µM (inactive)
GI50 (Malme-3M): > 100 µM (inactive)
GI50 (SF-268): > 100 µM (inactive)
GI50 (SR): > 100 µM (inactive)
GI50 (HT-29): > 100 µM (inactive)
GI50 (MOLT-4): > 100 µM (inactive)
GI50 (SF-295): > 100 µM (inactive)
GI50 (SK-MEL-28): > 100 µM (inactive)
GI50 (SW-620): > 100 µM (inactive)
GI50 (M14): > 100 µM (inactive)
GI50 (SK-MEL-5): > 100 µM (inactive)
GI50 (A549): > 100 µM (inactive)
GI50 (RXF 631): > 100 µM (inactive)
GI50 (SF-539): > 100 µM (inactive)
GI50 (RXF 393): > 100 µM (inactive)
GI50 (HOP-62): > 100 µM (inactive)
GI50 (SNB-19): > 100 µM (inactive)
GI50 (IGROV-1): > 100 µM (inactive)
GI50 (TK-10): 38.3 µM (inactive)
GI50 (SK-OV-3): > 100 µM (inactive)
GI50 (HCT-116): > 100 µM (inactive)
GI50 (CAKI-1): > 100 µM (inactive)
GI50 (HOP-18): > 100 µM (inactive)
GI50 (OVCAR-4): > 100 µM (inactive)
GI50 (M19-MEL): > 100 µM (inactive)
GI50 (ACHN): > 100 µM (inactive)
GI50 (SNB-78): > 100 µM (inactive)
GI50 (RPMI-8226): > 100 µM (inactive)
GI50 (LOX IMVI): 69.7 µM (inactive)
GI50 (UO-31): > 100 µM (inactive)
GI50 (K562): > 100 µM (inactive)
GI50 (CCRF-CEM): > 100 µM (inactive)
GI50 (SK-MEL-2): 94 µM (inactive)
GI50 (HL-60): > 100 µM (inactive)
GI50 (HCC 2998): > 100 µM (inactive)
GI50 (UACC-62): > 100 µM (inactive)
GI50 (OVCAR-5): > 100 µM (inactive)
GI50 (NCI-H460): > 100 µM (inactive)
GI50 (U-251): > 100 µM (inactive)
GI50 (UACC-257): > 100 µM (inactive)
GI50 (SN12C): > 100 µM (inactive)
GI50 (EKVX): > 100 µM (inactive)
GI50 (A498): > 100 µM (inactive)
GI50 (786-0): > 100 µM (inactive)
GI50 (KM12): > 100 µM (inactive)
GI50 (HCT-15): > 100 µM
GI50 (SNB-75): 60.1 µM (inactive)
GI50 (OVCAR-8): > 100 µM (inactive)

O=S(O)CCCCCSSc1ccc(Cl)cc1
GI50 (NCI-H23): 19.8 µM (inactive)
GI50 (NCI-H522): 14.9 µM (inactive)
GI50 (XF498): 13.7 µM (inactive)
GI50 (Malme-3M): 23 µM (inactive)
GI50 (SF-268): 10.7 µM (inactive)
GI50 (HT-29): 26.6 µM (inactive)
GI50 (SK-MEL-28): 21.6 µM (inactive)
GI50 (M14): 22.7 µM (inactive)
GI50 (RXF 631): 18.9 µM (inactive)
GI50 (SF-539): 16 µM (inactive)
GI50 (RXF 393): 13.8 µM (inactive)
GI50 (HOP-62): 22.4 µM (inactive)
GI50 (SNB-19): 28 µM (inactive)
GI50 (TK-10): 23.2 µM (inactive)
GI50 (DLD-1): 21.5 µM (inactive)
GI50 (SK-OV-3): 56 µM (inactive)
GI50 (HCT-116): 25.2 µM (inactive)
GI50 (OVCAR-4): 28.7 µM (inactive)
GI50 (M19-MEL): 28.4 µM (inactive)
GI50 (SNB-78): 23.5 µM (inactive)
GI50 (LOX IMVI): 16.4 µM (inactive)
GI50 (UO-31): 12.9 µM (inactive)
GI50 (K562): > 100 µM (inactive)
GI50 (CCRF-CEM): 4.49 µM (inactive)
GI50 (SK-MEL-2): 15.2 µM (inactive)
GI50 (HL-60): 27.2 µM (inactive)
GI50 (HCC 2998): 25.9 µM (inactive)
GI50 (OVCAR-5): 21.1 µM (inactive)
GI50 (NCI-H460): 36.9 µM (inactive)
GI50 (U-251): 10.1 µM (inactive)
GI50 (UACC-257): 22.5 µM (inactive)
GI50 (SN12C): 16 µM (inactive)
GI50 (EKVX): 39.1 µM (inactive)
GI50 (A498): 17 µM (inactive)
GI50 (LXFL 529): 13.7 µM (inactive)
GI50 (KM12): 20.7 µM (inactive)
GI50 (SNB-75): 23.1 µM (inactive)
GI50 (OVCAR-3): 15.6 µM (inactive)

C=CC1C(OC2OC(CO)C(O)C(O)C2O)OC=C(C(=O)OC)C1CC=O (stereo not drawn)
GI50 (COLO 205): > 100 µM (inactive)
GI50 (KM-20L2): > 100 µM (inactive)
GI50 (NCI-H23): > 100 µM (inactive)
GI50 (Malme-3M): > 100 µM (inactive)
GI50 (SF-268): > 100 µM (inactive)
GI50 (SR): > 100 µM (inactive)
GI50 (MOLT-4): > 100 µM (inactive)
GI50 (SF-295): > 100 µM (inactive)
GI50 (SK-MEL-28): > 100 µM (inactive)
GI50 (SW-620): 81.8 µM (inactive)
GI50 (M14): > 100 µM (inactive)
GI50 (SK-MEL-5): > 100 µM (inactive)
GI50 (A549): > 100 µM (inactive)
GI50 (RXF 631): > 100 µM (inactive)
GI50 (SF-539): > 100 µM (inactive)
GI50 (RXF 393): > 100 µM (inactive)
GI50 (HOP-62): > 100 µM (inactive)
GI50 (SNB-19): > 100 µM (inactive)
GI50 (IGROV-1): > 100 µM (inactive)
GI50 (DLD-1): > 100 µM (inactive)
GI50 (NCI-H226): 37.8 µM (inactive)
GI50 (SK-OV-3): > 100 µM (inactive)
GI50 (HOP-18): > 100 µM (inactive)
GI50 (OVCAR-4): > 100 µM (inactive)
GI50 (M19-MEL): > 100 µM (inactive)
GI50 (ACHN): > 100 µM (inactive)
GI50 (SNB-78): > 100 µM (inactive)
GI50 (RPMI-8226): > 100 µM (inactive)
GI50 (LOX IMVI): > 100 µM (inactive)
GI50 (UO-31): > 100 µM (inactive)
GI50 (K562): > 100 µM (inactive)
GI50 (SK-MEL-2): > 100 µM (inactive)
GI50 (HL-60): > 100 µM (inactive)
GI50 (UACC-62): > 100 µM (inactive)
GI50 (U-251): > 100 µM (inactive)
GI50 (SN12C): > 100 µM (inactive)
GI50 (EKVX): > 100 µM (inactive)
GI50 (A498): > 100 µM (inactive)
GI50 (786-0): > 100 µM (inactive)
GI50 (LXFL 529): > 100 µM (inactive)
GI50 (KM12): > 100 µM (inactive)
GI50 (HCT-15): > 100 µM
GI50 (SNB-75): > 100 µM (inactive)
GI50 (OVCAR-3): > 100 µM (inactive)

Reference: ChEMBL document CHEMBL1201862, “PubChem BioAssay data set” (2004)
